System: non-insulin dependent type II diabetes patients
Experiment: Clinical test II
Assay type: in vivo, human
Settings: for Fasting blood sugar: before medication 108.8 ± 15.10; for number of patients with fasting blood sugar level No change or increase / number of patients with reduction rate of fasting blood sugar level 20-10% / number of patients with reduction rate of fasting blood sugar level <10% / number of patients with reduction rate of fasting blood sugar level >20% / number of patients with total serum cholesterol No change or increase / number of patients with total serum cholesterol decreasing rate 20-10% / number of patients with total serum cholesterol decreasing rate <10% / number of patients with total serum cholesterol decreasing rate >20%: 12 weeks
Description: On the other hand, Clinical test II was performed in a group of 79 participants from non-insulin dependent diabetic patients.
79 non-insulin dependent type II diabetes patients whose blood sugar is well-controlled under dietary therapy (all were mongoloid Japanese) participated in Clinical test II. They were forbidden to use sulfonyl urea and biguanide agent which is a therapeutic agent for type II diabetes, and a fibrate series medicament, nicotinic acid, and probucol which is a serum fat decreasing agent; however use of an antihypertensive agent is not particularly prohibited. They participated on a voluntary basis after they signed informed consent for clinical test participation, which was proposed by a medical institution based on the Helsinki declaration. The participants consisted of 26 males and 53 females. An average age at the sign-up time was 58±9.9 years old (average value±standard deviation), ranging from 37 to 81 years old. The body weight of patients was divided by standard body weight obtained from the standard body-weight table issued by Meiji life Insurance Company. This index was 1.24±0.154 (average value±standard deviation) at the sign-up time, meaning that there are many obese persons. After 12 weeks, the body weight index decreased to 1.18±0.137(average value±standard deviation).
The number of patients having normal blood pressure was 58 (of them, 31 patients were taking an antihypertensive agent).

[1] = Normal blood sugar group FBS < 130 mg/dl, 12th week
[2] = body weight fluctuation: No change or increase (total 29)
[3] = body weight fluctuation: No change or increase (total 31)
[4] = body weight fluctuation: Reduction of 3 kg or less (total 24)
[5] = body weight fluctuation: Reduction of 3 kg or less (total 25)
[6] = body weight fluctuation: Reduction of 3 kg or more (total 13)
[7] = body weight fluctuation: Reduction of 3 kg or more (total 18)

**Q.** For COc1c(Cl)c(C)c(C=O)c(O)c1C/C=C(C)/C=C/[C@@]1(C)[C@H](C)CCC(=O)[C@@H]1C [4-O-methylascochlorin], which Fasting blood sugar (Normal blood sugar group FBS < 130 mg/dl, 8th week) is on record?
**A.** 109.0 ± 17.34 mg/dL

**Q.** And the “Fasting blood sugar, change vs before medication” value [1]?
**A.** ns (n = 25)

**Q.** What about the Fasting blood sugar [1] of the same compound?
**A.** 106.4 ± 17.80 mg/dL

**Q.** What about the Total serum cholesterol (Normal group <220 mg/dl, 4th week, before medication 188.9 ± 21.55) of the same compound?
**A.** 177.9 ± 31.91 mg/dL

**Q.** And the “Total serum cholesterol, change vs before medication” value (“Total serum cholesterol, change” for short) (Normal group <220 mg/dl, 4th week, ns. = No significant difference)?
**A.** ns. (n = 14)

**Q.** What about the Total serum cholesterol (Normal group <220 mg/dl, 8th week, before medication 188.9 ± 21.55) of the same compound?
**A.** 176.0 ± 36.33 mg/dL

**Q.** What about the “Total serum cholesterol, change” value (Normal group <220 mg/dl, 8th week, ns. = No significant difference) of the same compound?
**A.** ns. (n = 14)

**Q.** And the Total serum cholesterol (Normal group <220 mg/dl, 12th week, before medication 188.9 ± 21.55)?
**A.** 181.2 ± 32.10 mg/dL

**Q.** What about the “Total serum cholesterol, change” value (Normal group <220 mg/dl, 12th week, ns. = No significant difference) of the same compound?
**A.** ns. (n = 18)

**Q.** What about the “Total serum cholesterol, change” value (Super high cholesterol group >300 mg/dl, 4th week) of the same compound?
**A.** −20.0% (n = 20)

**Q.** And the Total serum cholesterol (Super high cholesterol group >300 mg/dl, 4th week, before medication 348.8 ± 56.36)?
**A.** 273.8 ± 29.38 mg/dL

**Q.** What about the “Total serum cholesterol, change” value (Super high cholesterol group >300 mg/dl, 8th week) of the same compound?
**A.** −28.9% (n = 20)

**Q.** And the Total serum cholesterol (Super high cholesterol group >300 mg/dl, 8th week, before medication 348.8 ± 56.36)?
**A.** 248.5 ± 36.01 mg/dL

**Q.** What about the “Total serum cholesterol, change” value (Super high cholesterol group >300 mg/dl, 12th week) of the same compound?
**A.** −30.0% (n = 21)

**Q.** What about the Total serum cholesterol (Super high cholesterol group >300 mg/dl, 12th week, before medication 348.8 ± 56.36) of the same compound?
**A.** 244.2 ± 36.59 mg/dL

**Q.** And the Serum neutral fat (abnormal high value group, greater than 120 mg/dl)?
**A.** significantly decreased

**Q.** What about the “body weight index (body weight divided by standard body weight)” value (after 12 weeks, at the sign-up time 1.24±0.154) of the same compound?
**A.** 1.18±0.137

**Q.** What about the “number of patients with fasting blood sugar level No change or increase” value [2] of the same compound?
**A.** 11

**Q.** What about the “number of patients with reduction rate of fasting blood sugar level 20-10%” value [2] of the same compound?
**A.** 8

**Q.** And the “number of patients with reduction rate of fasting blood sugar level <10%” value [2]?
**A.** 7

**Q.** What about the “number of patients with reduction rate of fasting blood sugar level >20%” value [2] of the same compound?
**A.** 3

**Q.** And the “number of patients with total serum cholesterol No change or increase” value [3]?
**A.** 11

**Q.** And the “number of patients with total serum cholesterol decreasing rate 20-10%” value [3]?
**A.** 6

**Q.** And the “number of patients with total serum cholesterol decreasing rate <10%” value [3]?
**A.** 5

**Q.** What about the “number of patients with total serum cholesterol decreasing rate >20%” value [3] of the same compound?
**A.** 9

**Q.** What about the “number of patients with fasting blood sugar level No change or increase” value [4] of the same compound?
**A.** 4

**Q.** And the “number of patients with reduction rate of fasting blood sugar level 20-10%” value [4]?
**A.** 8

**Q.** And the “number of patients with reduction rate of fasting blood sugar level <10%” value [4]?
**A.** 6

**Q.** And the “number of patients with reduction rate of fasting blood sugar level >20%” value [4]?
**A.** 6

**Q.** And the “number of patients with total serum cholesterol No change or increase” value [5]?
**A.** 4

**Q.** And the “number of patients with total serum cholesterol decreasing rate 20-10%” value [5]?
**A.** 2

**Q.** What about the “number of patients with total serum cholesterol decreasing rate <10%” value [5] of the same compound?
**A.** 1

**Q.** And the “number of patients with total serum cholesterol decreasing rate >20%” value [5]?
**A.** 18

**Q.** And the “number of patients with total serum cholesterol No change or increase” value [6]?
**A.** 1

**Q.** What about the “number of patients with total serum cholesterol decreasing rate 20-10%” value [6] of the same compound?
**A.** 0

**Q.** What about the “number of patients with total serum cholesterol decreasing rate <10%” value [6] of the same compound?
**A.** 1

**Q.** What about the “number of patients with total serum cholesterol decreasing rate >20%” value [6] of the same compound?
**A.** 11

**Q.** What about the “number of patients with fasting blood sugar level No change or increase” value [7] of the same compound?
**A.** 3

**Q.** And the “number of patients with reduction rate of fasting blood sugar level 20-10%” value [7]?
**A.** 3

**Q.** What about the “number of patients with reduction rate of fasting blood sugar level <10%” value [7] of the same compound?
**A.** 4

**Q.** What about the “number of patients with reduction rate of fasting blood sugar level >20%” value [7] of the same compound?
**A.** 8

**Q.** And the “Blood pressure, Diastolic period” value (borderline hypertensive patients (n = 14), 4th week, before medication 92 ± 3.0)?
**A.** 86 ± 2.4 mmHg

**Q.** And the “Blood pressure, Systolic period” value (borderline hypertensive patients (n = 14), 4th week, before medication 156 ± 5.4)?
**A.** 149 ± 3.8 mmHg

**Q.** And the “Blood pressure, Diastolic period” value (borderline hypertensive patients (n = 14), 8th week, before medication 92 ± 3.0)?
**A.** 86 ± 3.3 mmHg

**Q.** What about the “Blood pressure, Systolic period” value (borderline hypertensive patients (n = 14), 8th week, before medication 156 ± 5.4) of the same compound?
**A.** 147 ± 3.3 mmHg

**Q.** What about the “Blood pressure, Diastolic period” value (borderline hypertensive patients (n = 14), 12th week, before medication 92 ± 3.0) of the same compound?
**A.** 86 ± 4.1 mmHg

**Q.** And the “Blood pressure, Systolic period” value (borderline hypertensive patients (n = 14), 12th week, before medication 156 ± 5.4)?
**A.** 149 ± 5.5 mmHg

**Q.** And the “blood sugar decreasing effect” value (group having a fasting blood sugar level of greater than 130 mg/dl)?
**A.** has a significant blood sugar decreasing effect

**Q.** What about the “Serum neutral fat, change vs before medication” value (“Serum neutral fat, change” below) (group with serum neutral fat <120 mg/dl, 4th week) of the same compound?
**A.** −9.3% (n = 6)

**Q.** What about the Serum neutral fat (group with serum neutral fat <120 mg/dl, 4th week, before medication 96.2 ± 12.57) of the same compound?
**A.** 88.5 ± 32.93 mg/dL

**Q.** What about the “Serum neutral fat, change” value (group with serum neutral fat <120 mg/dl, 8th week) of the same compound?
**A.** −15.7% (n = 7)

**Q.** What about the Serum neutral fat (group with serum neutral fat <120 mg/dl, 8th week, before medication 96.2 ± 12.57) of the same compound?
**A.** 85.7 ± 24.64 mg/dL

**Q.** And the “Serum neutral fat, change” value (group with serum neutral fat <120 mg/dl, 12th week)?
**A.** −5.2% (n = 8)

**Q.** What about the Serum neutral fat (group with serum neutral fat <120 mg/dl, 12th week, before medication 96.2 ± 12.57) of the same compound?
**A.** 90.3 ± 22.32 mg/dL

**Q.** And the “Serum neutral fat, change” value (group with serum neutral fat >120 mg/dl, 4th week)?
**A.** −15.5% (n = 56)

**Q.** What about the Serum neutral fat (group with serum neutral fat >120 mg/dl, 4th week, before medication 215.7 ± 83.96) of the same compound?
**A.** 182.6 ± 68.26 mg/dL

**Q.** What about the “Serum neutral fat, change” value (group with serum neutral fat >120 mg/dl, 8th week) of the same compound?
**A.** −23.2% (n = 52)

**Q.** And the Serum neutral fat (group with serum neutral fat >120 mg/dl, 8th week, before medication 215.7 ± 83.96)?
**A.** 172.7 ± 62.84 mg/dL

**Q.** What about the “Serum neutral fat, change” value (group with serum neutral fat >120 mg/dl, 12th week) of the same compound?
**A.** −25.4% (n = 61)

**Q.** And the Serum neutral fat (group with serum neutral fat >120 mg/dl, 12th week, before medication 215.7 ± 83.96)?
**A.** 167.8 ± 72.93 mg/dL

**Q.** And the “decrease of systolic pressure” value (hypertension group, 4 weeks after medication, text: no significant difference)?
**A.** 10 mmHg

**Q.** What about the “Blood pressure, Diastolic period” value (hypertensive patients (n = 7), 4th week, before medication 97 ± 3.0) of the same compound?
**A.** 91 ± 3.0 mmHg

**Q.** And the “Blood pressure, Systolic period” value (hypertensive patients (n = 7), 4th week, before medication 175 ± 10.4)?
**A.** 165 ± 15.6 mmHg

**Q.** What about the “Blood pressure, Diastolic period” value (hypertensive patients (n = 7), 8th week, before medication 97 ± 3.0) of the same compound?
**A.** 90 ± 5.1 mmHg

**Q.** What about the “Blood pressure, Systolic period” value (hypertensive patients (n = 7), 8th week, before medication 175 ± 10.4) of the same compound?
**A.** 161 ± 13.9 mmHg

**Q.** What about the “Blood pressure, Diastolic period” value (hypertensive patients (n = 7), 12th week, before medication 97 ± 3.0) of the same compound?
**A.** 89 ± 4.0 mmHg

**Q.** And the “Blood pressure, Systolic period” value (hypertensive patients (n = 7), 12th week, before medication 175 ± 10.4)?
**A.** 158 ± 15.7 mmHg

**Q.** What about the “blood sugar decreasing effect” value (normal blood sugar group, fasting blood sugar level of 130 mg/dl or less) of the same compound?
**A.** does not have a blood sugar decreasing effect

**Q.** And the “concentration of serum cholesterol” value (normal group, serum total cholesterol 220 mg/dl or less)?
**A.** did not change the concentration of serum cholesterol significantly

**Q.** And the Serum neutral fat (normal value group, 120 mg/dl or less)?
**A.** only a tendency to decrease

**Q.** And the antihypertensive effect (patients of type II diabetes complicated with borderline hypertensive)?
**A.** highly significant antihypertensive effect

**Q.** And the total cholesterol values (super high value group and high value group)?
**A.** further significantly decreased

Source: US20050153870A1, “Medicinal composition for diagnosis, prevention, or therapy of multiple risk factor syndrome” (priority 2002, published 2005)
